# Patent US9499551B2, “Substituted pyrrolo[2,3-b]pyridines for treating cancer or inflammatory diseases” (Confluence Life Sciences, Inc., priority 2014, dated 2016)
# Legend:
# TAK1-TAB1 = target: T1, TAK1-TAB1 (Homo sapiens, UniProt O43318); experiment: TAK1-TAB1 binding inhibitory potency (LanthaScreen competitive binding assay, kinase tracer-236); conditions: 10 nM TAK1-TAB1, 100 nM kinase tracer-236; read-out: TAK1-Tab Inhibition IC50
# T1 sequence (O43318 with tags, fused parts or gaps limits assumed): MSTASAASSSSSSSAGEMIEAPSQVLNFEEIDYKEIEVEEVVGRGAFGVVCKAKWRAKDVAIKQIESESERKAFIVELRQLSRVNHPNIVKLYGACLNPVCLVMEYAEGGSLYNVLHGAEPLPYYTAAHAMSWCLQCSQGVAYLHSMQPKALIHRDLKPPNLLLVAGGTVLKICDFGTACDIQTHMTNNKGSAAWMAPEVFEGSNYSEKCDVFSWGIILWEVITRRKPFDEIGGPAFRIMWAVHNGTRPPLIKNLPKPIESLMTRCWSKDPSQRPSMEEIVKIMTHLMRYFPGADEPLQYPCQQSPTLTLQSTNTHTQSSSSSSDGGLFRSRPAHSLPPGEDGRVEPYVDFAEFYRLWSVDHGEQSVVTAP
# How it was run: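 Compounds were tested for TAK1-TAB1 binding in a 384-well LanthaScreen competitive FRET assay. TAK1-TAB1 (10 nM) and Eu-anti-his antibody (2 nM) were preincubated with compound for two hours before adding 100 nM Alexa Fluor 647 kinase tracer-236. The buffer was 20 mM HEPES pH 7.5, 10 mM MgCl2, 0.01% BSA, 0.0005% Tween-20 and 2% DMSO. IC50 came from 4-parameter logistic fits of emission ratio over an 11-point series from 20 μM to 0.34 nM.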
# [1] = system: IL-6 Production in Human Peripheral Blood Mononuclear Cells (PBMC); experiment: LPS stimulated IL-6 production in PBMC cells; assay type: cell-based; conditions: read-out: IL-6 Production Inhibition IC50
# Protocol: LPS Stimulated IL-6 Production in PBMC Cells:
# Lipopolysaccharide (LPS) stimulated IL-6 Production in Human Peripheral Blood Mononuclear Cells (PBMC): The cellular efficacy of compound candidates is determined using peripheral blood mononuclear cells purified from human whole blood, based upon the methods of Burnette et al. (2009) Pharmacology, 84:42-60. PBMC produce a number of cytokines (IL6, IL8, IL1β and TNFα) in response to stimulation with LPS. To induce the production of inflammatory mediators, PBMC are plated at a final concentration of 2×10^5 cells/well in a 96 well flat bottom plate in DMEM medium supplemented with 10% fetal bovine serum, 100 units/ml penicillin and 100 μg/ml streptomycin (Gibco BRL Life Technologies). Cells are treated with or without inhibitors for 1-3 hrs then stimulated with 100 ng/ml LPS (serotype 011:B4, Sigma) for an additional 3 hrs at 37° C. with 5% CO2. The supernatants are removed and stored at −20° C. until they are to be assayed. The levels of inflammatory mediators are determined using commercial MSD cytokine kits (Meso Scale Discovery) as per the manufacturer's instructions. Standard curves are based on 7 steps of 4× serial dilutions, with a wide dynamic range of 10000 pg/ml to 2.4 pg/ml, and a blank. Lower limit of detection (LLOD) is calculated at the commonly used 3× the standard deviation of the blank.
SMILES,IC50 (TAK1-TAB1),IC50 [1]
"N#C/C=C/c1c[nH]c2ncc(N3CCN(C(=O)c4ccccc4)CC3)cc12 [Example 279, (E)-3-(5-(4-benzoylpiperazin-1-yl)-1H-pyrrolo[2,3-b]pyridin-3-yl)acrylonitrile]",≤ 1000 nM,> 1000 nM
"N#Cc1cccc(-c2cnc3[nH]cc(/C=C/C(N)=O)c3c2)c1 [Example 18, 3-[5-(3-Cyano-phenyl)-1H-pyrrolo[2,3-b]pyridin-3-yl]-acrylamide]",≤ 1000 nM,≤ 1000 nM
"CC(C)(C)C(=O)N1CCN(c2cnc3[nH]cc(/C=C/C(N)=O)c3c2)CC1 [Example 264, (E)-3-(5-(4-pivaloylpiperazin-1-yl)-1H-pyrrolo[2,3-b]pyridin-3-yl)acrylamide]",≤ 1000 nM,≤ 1000 nM
"N#C/C(=C\c1c[nH]c2ncc(-c3ccccc3)cc12)C(N)=O [Example 226, (E)-2-Cyano-3-(5-phenyl-1H-pyrrolo[2,3-b]pyridin-3-yl)acrylamide]",≤ 1000 nM,≤ 1000 nM
"NC(=O)/C=C/c1c[nH]c2ncc(N3CCN(C(=O)c4ccccc4)CC3)cc12 [Example 267, (E)-3-(5-(4-benzoylpiperazin-1-yl)-1H-pyrrolo[2,3-b]pyridin-3-yl)acrylamide]",≤ 1000 nM,> 1000 nM
"NC(=O)/C=C/c1c[nH]c2ncc(Cc3ccc(F)cc3)cc12 [Example 274, (E)-3-(5-(4-fluorobenzyl)-1H-pyrrolo[2,3-b]pyridin-3-yl)acrylamide]",≤ 1000 nM,≤ 1000 nM
"NC(=O)/C=C/c1c[nH]c2ncc(-c3cnc4ccccc4c3)nc12 [Example 263, (E)-3-(2-(quinolin-3-yl)-5H-pyrrolo[2,3-b]pyrazin-7-yl)acrylamide]",≤ 1000 nM,≤ 1000 nM
"CC(C)(C)c1cc(-c2cnc3[nH]cc(/C=C/C(N)=O)c3c2)cc(C(C)(C)C)c1 [Example 258, (E)-3-(5-(3,5-di-tert-butylphenyl)-1H-pyrrolo[2,3-b]pyridin-3-yl)acrylamide]",≤ 1000 nM,≤ 1000 nM
"CC(=O)/C=C/c1c[nH]c2ncc(-c3cccnc3)cc12 [Example 251, (E)-4-(5-(pyridin-3-yl)-1H-pyrrolo[2,3-b]pyridin-3-yl)but-3-en-2-one]",≤ 1000 nM,> 1000 nM
"N#Cc1ccc(-c2cnc3[nH]cc(/C=C/C(N)=O)c3c2)cn1 [Example 261, (E)-3-(5-(6-cyanopyridin-3-yl)-1H-pyrrolo[2,3-b]pyridin-3-yl)acrylamide]",≤ 1000 nM,≤ 1000 nM
"CC(C)Oc1cnc2[nH]cc(/C=C/C(N)=O)c2c1 [Example 8, 3-(5-Isopropoxy-1H-pyrrolo[2,3-b]pyridin-3-yl)-acrylamide]",≤ 1000 nM,≤ 1000 nM
"NC(=O)/C=C/c1c[nH]c2ncc(-c3ccc(F)cc3F)nc12 [Example 248, (E)-3-(2-(2,4-difluorophenyl)-5H-pyrrolo[2,3-b]pyrazin-7-yl)acrylamide]",≤ 1000 nM,≤ 1000 nM
NC(=O)/C=C/c1c[nH]c2ncc(Cc3ccccc3)cc12 [Example 39],≤ 1000 nM,≤ 1000 nM
"NC(=O)/C=C/c1c[nH]c2ncc(N3CCN(C(=O)c4ncc(F)cc4F)CC3)cc12 [Example 288, (E)-3-(5-(4-(3,5-difluoropicolinoyl)piperazin-1-yl)-1H-pyrrolo[2,3-b]pyridin-3-yl)acrylamide]",≤ 1000 nM,> 1000 nM
"NC(=O)/C=C/c1c[nH]c2ncc(-c3ccncc3)cc12 [Example 259, (E)-3-(5-(pyridin-4-yl)-1H-pyrrolo[2,3-b]pyridin-3-yl)acrylamide]",≤ 1000 nM,≤ 1000 nM
"CC1CCN(C(=O)c2ccc(-c3cnc4[nH]cc(/C=C/C(N)=O)c4c3)cn2)CC1 [Example 265, (E)-3-(5-(6-(4-methylpiperidine-1-carbonyl)pyridin-3-yl)-1H-pyrrolo[2,3-b]pyridin-3-yl)acrylamide]",≤ 1000 nM,> 1000 nM
